These results are taken from article PMC4678810 (Nucleic Acids Research, 2015).

In test [1] the target is YlTrm9N19-Trm112 (Yarrowia lipolytica, UniProt Q6C999).
In test [2] the target is YlTrm9N38-Trm112 (Yarrowia lipolytica, UniProt Q6C999).
For test [3], the target named is YlTrm9-Trm112 (full-length) (Yarrowia lipolytica, UniProt Q6C999).
Chain of YlTrm9-Trm112 (full-length) (Q6C999 1-234): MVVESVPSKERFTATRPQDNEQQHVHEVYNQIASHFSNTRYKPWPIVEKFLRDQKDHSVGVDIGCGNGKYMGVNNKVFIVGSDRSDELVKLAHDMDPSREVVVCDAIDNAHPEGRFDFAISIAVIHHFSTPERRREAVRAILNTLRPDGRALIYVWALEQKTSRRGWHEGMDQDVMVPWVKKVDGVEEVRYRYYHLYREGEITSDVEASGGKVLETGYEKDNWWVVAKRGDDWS
Chain of YlTrm9-Trm112 (full-length) (Q6C4P5 1-130 partner): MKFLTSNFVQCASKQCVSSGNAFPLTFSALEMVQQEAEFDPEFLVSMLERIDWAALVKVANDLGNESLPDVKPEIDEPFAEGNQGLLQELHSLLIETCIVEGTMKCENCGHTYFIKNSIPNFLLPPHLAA

Chain of YlTrm9N19-Trm112 (Q6C999 19-234): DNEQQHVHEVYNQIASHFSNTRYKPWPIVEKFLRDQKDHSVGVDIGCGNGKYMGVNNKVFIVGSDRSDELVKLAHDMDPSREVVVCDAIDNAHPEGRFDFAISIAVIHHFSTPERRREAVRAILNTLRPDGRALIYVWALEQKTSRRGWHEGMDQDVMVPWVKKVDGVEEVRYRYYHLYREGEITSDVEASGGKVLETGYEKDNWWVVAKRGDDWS
Chain of YlTrm9N19-Trm112 (Q6C4P5 1-130 partner): as the sequence (Q6C4P5 1-130 partner) above
Chain of YlTrm9N38-Trm112 (Q6C999 38-234): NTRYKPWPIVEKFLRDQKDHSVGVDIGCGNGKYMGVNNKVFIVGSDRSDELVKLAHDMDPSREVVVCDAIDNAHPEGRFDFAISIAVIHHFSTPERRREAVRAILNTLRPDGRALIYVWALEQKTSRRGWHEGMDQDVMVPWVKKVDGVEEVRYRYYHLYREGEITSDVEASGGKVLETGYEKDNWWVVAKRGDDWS
Chain of YlTrm9N38-Trm112 (Q6C4P5 1-130 partner): as the sequence (Q6C4P5 1-130 partner) above

Consider `C[S+](CC[C@H](N)C(=O)O)C[C@H]1O[C@@H](n2cnc3c(N)ncnc32)[C@H](O)[C@@H]1O` (stereo partly drawn) [SAM], for which the figures for the “affinity for SAM” value in test [1], in test [2] and in test [3] were “both truncated forms were strongly affected in their enzymatic activity”, “displayed the same affinity for SAM” and “displayed the same affinity for SAM”, respectively.
